# From patent publication US10654843B2, “LMP7 inhibitors” (PRINCIPIA BIOPHARMA INC., priority 2014, dated 2020)
# Like-named read-outs stand apart in the source and are kept apart here.
# What was measured:
# [1] = target: immunoproteasome (LMP7/B5i) (Homo sapiens, UniProt P20618+P28062); assay: Caliper-based proteasome assay, immunoproteasome chymotrypsin-like activity; format: biochemical; conditions: human recombinant immunoproteasome 0.3 nM, FAM-labeled peptide substrate 1 μM, room temperature 3 h
# Experimental: (§1) A Caliper-based proteasome assay (Caliper Life Sciences, Hopkinton, Mass.) was used to measure inhibition of the chymotrypsin-like activity of both immunoproteasome (LMP7/B5i) and the constitutive proteasome (B5c) for a compound of Formula (I). Serial dilutions of test compounds were incubated with either human recombinant immunoproteasome or constitutive proteasome (0.3 nM enzyme) and a carboxyfluorescein (FAM)-labeled peptide substrate FAM-TYETFKSIMKKSPF-NH2 (1 μM) at room temperature for 3 h. The reaction buffer was 20 mM Hepes pH 7.4, 0.01% bovine serum albumin, 0.015% SDS, 0.5 mM EDTA, 1% DMSO. The reaction was then terminated with a buffer containing the known proteasome inhibitor carfilzomib at a concentration of 5 uM. The peptide cleavage reaction product was quantified on a Caliper LabChip 3000. Percent inhibition was calculated for each compound dilution and the concentration that produced 50% inhibition was calculated. This value is presented as the IC50.
# [2] = target: constitutive proteasome (B5c) (Homo sapiens, UniProt P20618+P28074); assay: Caliper-based proteasome assay, constitutive proteasome chymotrypsin-like activity; format: biochemical; conditions: human recombinant constitutive proteasome 0.3 nM, FAM-labeled peptide substrate 1 μM, room temperature 3 h
# Experimental: as §1
# [3] = target: T1, proteasome activity in HT-29 cells (enriched in constitutive proteasome) (Homo sapiens, UniProt P28074); assay: Inhibition of proteasome activity in cells (Proteasome-Glo), HT-29; format: cell-based; conditions: 2 hr incubation, Suc-LLVY-aminoluciferin, read-out: HT29 IC50
# T1 construct: endogenous in cells; host or cells: HT-29
# Experimental: (§2) The cell-based effects of the compound of the present disclosure on immunoproteasome were determined by measuring inhibition of proteasome activity in cells using the Proteasome-Glo™ Cell-Based Reagent (Promega, Madison Wis). The Proteasome-Glo™ assay contains a specific luminogenic proteasome substrate in a buffer optimized for cell permeabilization, proteasome activity, and luciferase activity. For the chymotrypsin-like activity, the peptide substrate is Suc-LLVY-aminoluciferin (Succinyl-leucine-leucine-valine-tyrosine-aminoluciferin). Cleavage of the substrate by proteasome results in luminescent signal which is proportional to the proteasome activity. The cell line THP-1 (a monocytic leukemia cell line enriched in immunoproteasome), the cell line HT-29 (a colorectal adenocarcinoma cell line enriched in constitutive proteasome), and primary human peripheral blood mononuclear cells (PBMC) were used to assess proteasome activity. Cells were seeded in a 96-well plate at 10,000 cells per well in RPMI 1640 high glucose medium with 10% fetal bovine serum (FBS). Compound dilutions were added to cells starting at a concentration of 5 uM and decreasing in tripling dilutions. The final DMSO concentration was 1%. The concentration range was adjusted as needed for compounds of different potencies. The cells treated with compounds were incubated for 2 hr at 37° C. in 5% CO2. At the end of the 2 hour incubation period, cells were transferred to white 384 well assay plates. 20 uL of Proteasome-Glo™ Reagent was added to each well and incubated for 10 minutes at room temperature. The plate was read in the Analyst HT instrument (Molecular Devices, Sunnyvale, Calif.) using luminescence mode. The percent inhibition of activity was plotted as a function of log compound concentration. The IC50 was then calculated for each compound using Prism software from GraphPad Software Inc. (San Diego, Calif).
# [4] = target: T2, proteasome activity in primary human peripheral blood mononuclear cells (PBMC) (Homo sapiens, UniProt P28062); assay: Inhibition of proteasome activity in cells (Proteasome-Glo), PBMC; format: cell-based; conditions: 2 hr incubation, Suc-LLVY-aminoluciferin
# T2 construct: endogenous in cells; host or cells: primary human PBMC
# Experimental: as §2
# [5] = target: T3, proteasome activity in HT-29 cells (Homo sapiens, UniProt P28074); assay: Durability of binding in cells, wash-out assay (Proteasome-Glo), HT-29; format: cell-based; conditions: 2 hours incubation, washout
# T3 construct: endogenous in cells; host or cells: HT-29
# Experimental: The durability of binding of proteasome inhibitors was assessed in cells using wash-out assays and the Proteasome-Glo™ Reagent kit. THP-1 cells, HT-29 cells, or PBMC were incubated with an 8-fold dilution series of inhibitor for 2 hours. Following 2 hours of incubation, cells were washed using 3 occasions of centrifugation followed by resuspension in culture medium. Following inhibitor washout, cells were returned to culture for either 30 minutes, 4 hours, or 18 hours. Cells were then transferred to white 384 plates, and 20 uL of Proteasome-Glo™ Reagent was added to each well for 10 minutes. Plates were then read on an Analyst HT plate reader using luminescence mode. The percent inhibition of activity was plotted as a function of log compound concentration. The IC50 was then calculated for each compound using Prism software from GraphPad.
# [6] = 30 minutes in culture, read-out: HT29 (30 min) IC50
# [7] = 4 hours in culture, read-out: HT29 (4 h) IC50
Compound,IC50 [1],IC50 [2],IC50 [3],IC50 [4],"IC50 [5, 6]","IC50 [5, 7]"
"Cc1ccc(CNC(=O)[C@H](COc2cccc(C=C(C#N)C(=O)N(C)C)c2)NC(=O)[C@@H](NC(=O)c2cc(C)on2)[C@@H](C)O)cc1 [Example 1, N-((2S,3R)-1-(((S)-3-(3-(2-cyano-3-(dimethylamino)-3-oxoprop-1-en-1-yl)phenoxy)-1-((4-methylbenzyl)amino)-1-oxopropan-2-yl)amino)-3-hydroxy-1-oxobutan-2-yl)-5-methylisoxazole-3-carboxamide]",31 nM,274 nM,–,–,–,–
"Cc1ccc(CNC(=O)[C@H](COc2cccc(C=C(C#N)C(=O)NC(C)(C)C)c2)NC(=O)[C@@H](NC(=O)c2cc(C)on2)[C@@H](C)O)c(F)c1 [Example 7, N-((2S,3R)-1-(((S)-3-(3-(3-(tert-butylamino)-2-cyano-3-oxoprop-1-en-1-yl)phenoxy)-1-((2-fluoro-4-methylbenzyl)amino)-1-oxopropan-2-yl)amino)-3-hydroxy-1-oxobutan-2-yl)-5-methylisoxazole-3-carboxamide]",11 nM,2140 nM,–,–,–,–
"Cc1ccc(CNC(=O)[C@H](COc2cccc(C=C(C#N)n3cncn3)c2)NC(=O)[C@@H](NC(=O)c2cc(C)on2)[C@@H](C)O)cc1 [Example 8a, N-((2S,3R)-1-(((S)-3-(3-(2-cyano-2-(1H-1,2,4-triazol-1-yl)vinyl)phenoxy)-1-((4-methylbenzyl)amino)-1-oxopropan-2-yl)amino)-3-hydroxy-1-oxobutan-2-yl)-5-methylisoxazole-3-carboxamide]",17 nM,120 nM,200 nM,10 nM,580 nM,> 5000 nM
"Cc1ccc(CNC(=O)[C@H](CCc2cccc(C=C(C#N)C(=O)N(C)C)c2)NC(=O)[C@@H](NC(=O)c2cc(C)on2)[C@@H](C)O)cc1 [Example 15, N-((2S,3R)-1-(((S)-4-(3-(2-cyano-3-(dimethylamino)-3-oxoprop-1-en-1-yl)phenyl)-1-((4-methylbenzyl)amino)-1-oxobutan-2-yl)amino)-3-hydroxy-1-oxobutan-2-yl)-5-methylisoxazole-3-carboxamide]",20 nM,61 nM,84 nM,13 nM,> 5000 nM,> 5000 nM
"Cc1ccc(CNC(=O)[C@H](CCCCNC(=O)C(C#N)=CC(C)C)NC(=O)[C@@H](NC(=O)c2cc(C)on2)[C@@H](C)O)cc1 [Example 21, N-((2S,3R)-1-(((S)-6-(2-cyano-4-methylpent-2-enamido)-1-((4-methylbenzyl)-amino)-1-oxohexan-2-yl)amino)-3-hydroxy-1-oxobutan-2-yl)-5-methylisoxazole-3-carboxamide]",5 nM,143 nM,646 nM,23 nM,> 5000 nM,–
"Cc1ccc(CNC(=O)[C@H](CCCCNC(=O)C(C#N)=CC(C)(C)C)NC(=O)[C@@H](C)NC(=O)c2cc(C)on2)cc1 [Example 21d, N—((R)-1-(((S)-6-(2-cyano-4,4-dimethylpent-2-enamido)-1-((4-methylbenzyl)amino)-1-oxohexan-2-yl)amino)-1-oxopropan-2-yl)-5-methylisoxazole-3-carboxamide]",144 nM,3950 nM,–,–,–,–
"Cc1ccc(CNC(=O)[C@H](CCCCN(C)C(=O)C(C#N)=CC(C)C)NC(=O)[C@@H](NC(=O)c2cc(C)on2)[C@@H](C)O)cc1 [Example 22, N-((2S,3R)-1-(((S)-6-(2-cyano-N,4-dimethylpent-2-enamido)-1-((4-methylbenzyl)-amino)-1-oxohexan-2-yl)amino)-3-hydroxy-1-oxobutan-2-yl)-5-methylisoxazole-3-carboxamide]",37 nM,704 nM,–,–,–,–
"Cc1ccc(CNC(=O)[C@H](Cc2cccc(NC(=O)C(C#N)=CC(C)C)c2)NC(=O)[C@@H](NC(=O)c2cc(C)on2)[C@@H](C)O)cc1 [Example 24, N-((2S,3R)-1-(((S)-3-(3-(2-cyano-4-methylpent-2-enamido)phenyl)-1-((4-methyl-benzyl)amino)-1-oxopropan-2-yl)amino)-3-hydroxy-1-oxobutan-2-yl)-5-methylisoxazole-3-carboxamide]",64 nM,3210 nM,–,–,–,–
"Cc1ccc(CNC(=O)[C@H](Cc2cccc(N(C)C(=O)C(C#N)=CC(C)C)c2)NC(=O)[C@@H](NC(=O)c2cc(C)on2)[C@@H](C)O)cc1 [Example 25, N-((2S,3R)-1-(((S)-3-(3-(2-cyano-N,4-dimethylpent-2-enamido)phenyl)-1-((4-methylbenzyl)amino)-1-oxopropan-2-yl)amino)-3-hydroxy-1-oxobutan-2-yl)-5-methylisoxazole-3-carboxamide]",29 nM,1450 nM,1180 nM,15 nM,> 5000 nM,> 5000 nM
"Cc1ccc(CNC(=O)[C@H](Cc2cccc(N(C)C(=O)C(C#N)=CC(C)C)c2)NC(=O)[C@@H](NC(=O)c2cc(C)on2)[C@@H](C)O)c(F)c1 [Example 27, N-((2S,3R)-1-(((S)-3-(3-(2-cyano-N,4-dimethylpent-2-enamido)phenyl)-1-((2-fluoro-4-methylbenzyl)amino)-1-oxopropan-2-yl)amino)-3-hydroxy-1-oxobutan-2-yl)-5-methylisoxazole-3-carboxamide]",21 nM,147 nM,360 nM,13 nM,3800 nM,> 5000 nM
"Cc1ccc(CNC(=O)[C@H](CC2CCN(C(=O)C(C#N)=CC(C)C)CC2)NC(=O)[C@@H](NC(=O)c2cc(C)on2)[C@@H](C)O)cc1 [Example 29, N-((2S,3R)-1-(((S)-3-(1-(2-cyano-4-methylpent-2-enoyl)piperidin-4-yl)-1-((4-methylbenzyl)amino)-1-oxopropan-2-yl)amino)-3-hydroxy-1-oxobutan-2-yl)-5-methylisoxazole-3-carboxamide]",103 nM,788 nM,–,–,–,–
